Measurements taken from patent publication EP4722213A1, “NITROGEN-CONTAINING FUNCTIONAL GROUP-SUBSTITUTED PYRIDAZINOPYRIDONE DERIVATIVE AND USE THEREOF” (Sichuan Huiyu Pharmaceutical Co., Ltd., priority 2023, dated 2024).
Structures can show the parent of a compound that is named as a salt.

Biological target: T1, SOS1 (Homo sapiens, UniProt Q07889)
T1 sequence (Q07889 1-1333): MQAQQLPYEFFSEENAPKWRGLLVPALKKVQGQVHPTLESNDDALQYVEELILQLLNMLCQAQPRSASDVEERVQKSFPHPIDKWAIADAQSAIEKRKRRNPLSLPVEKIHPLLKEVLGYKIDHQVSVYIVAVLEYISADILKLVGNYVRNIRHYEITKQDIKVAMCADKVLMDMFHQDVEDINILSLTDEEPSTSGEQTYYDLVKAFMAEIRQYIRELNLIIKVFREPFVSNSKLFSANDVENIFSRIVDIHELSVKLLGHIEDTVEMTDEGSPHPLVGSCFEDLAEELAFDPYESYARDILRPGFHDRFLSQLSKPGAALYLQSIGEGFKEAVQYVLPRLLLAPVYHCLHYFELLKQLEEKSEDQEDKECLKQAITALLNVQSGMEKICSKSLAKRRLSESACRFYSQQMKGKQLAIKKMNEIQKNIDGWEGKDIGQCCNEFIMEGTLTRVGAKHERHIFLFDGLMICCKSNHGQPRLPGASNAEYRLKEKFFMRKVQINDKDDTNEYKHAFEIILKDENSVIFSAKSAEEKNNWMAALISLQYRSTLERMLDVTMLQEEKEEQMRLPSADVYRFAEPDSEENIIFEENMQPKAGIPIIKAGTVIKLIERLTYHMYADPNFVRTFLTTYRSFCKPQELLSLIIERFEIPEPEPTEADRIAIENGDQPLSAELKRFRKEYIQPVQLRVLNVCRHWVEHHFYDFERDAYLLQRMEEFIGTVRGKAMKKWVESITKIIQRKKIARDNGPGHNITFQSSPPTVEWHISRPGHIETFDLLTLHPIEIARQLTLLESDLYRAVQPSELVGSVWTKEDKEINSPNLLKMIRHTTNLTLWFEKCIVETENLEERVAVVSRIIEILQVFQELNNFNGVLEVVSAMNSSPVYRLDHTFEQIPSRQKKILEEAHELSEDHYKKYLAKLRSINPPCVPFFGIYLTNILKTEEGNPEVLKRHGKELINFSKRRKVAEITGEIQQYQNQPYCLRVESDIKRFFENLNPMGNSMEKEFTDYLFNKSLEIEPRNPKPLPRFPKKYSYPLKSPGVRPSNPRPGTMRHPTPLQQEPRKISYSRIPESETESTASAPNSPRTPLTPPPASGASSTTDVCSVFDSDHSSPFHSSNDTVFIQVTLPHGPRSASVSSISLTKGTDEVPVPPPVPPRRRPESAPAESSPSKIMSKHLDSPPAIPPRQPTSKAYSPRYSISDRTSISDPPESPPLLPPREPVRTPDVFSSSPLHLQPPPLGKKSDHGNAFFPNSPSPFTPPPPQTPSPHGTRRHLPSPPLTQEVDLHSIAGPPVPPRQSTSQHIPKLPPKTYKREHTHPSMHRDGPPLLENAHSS
Experiment: biochemical

| SMILES | IC50 [nM] |
| --- | --- |
| C[C@@H](Nc1nnc(N2CCC(F)(F)C2)c2cc(=O)n(C3CC3)cc12)c1cccc(C(F)F)c1F [Example 14, (R)-6-cyclopropyl-4-((1-(3-(difluoromethyl)-2-fluorophenyl)ethyl)amino)-1-(3,3-difluoropyrrolidin-1-yl)pyrido[3,4-d]pyridazin-7(6H)-one] | 17.6 |
| Cc1c(C#N)cccc1[C@@H](C)Nc1nnc(N2CC(F)(F)C2)c2cc(=O)n(C3(C)CC3)cc12 [Example 48, (R)-3-(1-((1-(3,3-difluoroazetidin-1-yl)-6-(1-methylcyclopropyl)-7-oxo-6,7-dihydropyrido[3,4-d]pyridazin-4-yl)amino)ethyl)-2-methylbenzonitrile] | 46.5 |
| C[C@@H](Nc1nnc(NC2COC2)c2cc(=O)n(C3(C)CC3)cc12)c1cccc(C(F)F)c1F [Example 115, (R)-4-((1-(3-(difluoromethyl)-2-fluorophenyl)ethyl)amino)-6-(1-methylcyclopropyl)-1-(oxetan-3-ylamino)pyrido[3,4-d]pyridazin-7(6H)-one] | 4.1 |
| Cc1c(C#N)cccc1[C@@H](C)Nc1nnc(N2CCN(C)CC2)c2cc(=O)n(N3CC4CCCC4C3)cc12 (stereo partly drawn) [Example 150, 3-((1R)-1-((6-(hexahydrocyclopenta[c]pyrrol-2(1H)-yl)-1-(4-methylpiperazin-1-yl)-7-oxo-6,7-dihydropyrido[3,4-d]pyridazin-4-yl)amino)ethyl)-2-methylbenzonitrile] | 5.5 |
| Cc1c([C@@H](C)Nc2nnc(N3CC4CC4C3)c3cc(=O)n(C4(C)CC4)cc23)cccc1C(F)(F)F (stereo partly drawn) [Example 62, 1-(3-azabicyclo[3.1.0]hexan-3-yl)-4-(((R)-1-(2-methyl-3-(trifluoromethyl)phenyl)ethyl)amino)-6-(1-methylcyclopropyl) pyrido[3,4-d]pyridazin-7(6H)-one] | 9.4 |
| C[C@@H](Nc1nnc(N(C)C)c2cc(=O)n(C3CC3)cc12)c1cccc(C(F)F)c1F [Example 76, (R)-6-cyclopropyl-4-((1-(3-(difluoromethyl)-2-fluorophenyl)ethyl)amino)-1-(dimethylamino) pyrido[3,4-d]pyridazin-7(6H)-one] | 9.2 |
| CCN1CCN(c2nnc(N[C@H](C)c3cccc(C#N)c3C)c3cn(C4CC4)c(=O)cc23)CC1 [Example 224, (R)-3-(1-((6-cyclopropyl-1-(4-ethylpiperazin-1-yl)-7-oxo-6,7-dihydropyrido[3,4-d]pyridazin-4-yl)amino)ethyl)-2-methylbenzonitrile] | 8.4 |
| Cc1c([C@@H](C)Nc2nnc(N3CCN(C)CC3)c3cc(=O)n(C4(C)CC4)cc23)cccc1S(=O)(=O)C(F)F [Example 209, (R)-4-((1-(3-((difluoromethyl)sulfonyl)-2-methylphenyl)ethyl)amino)-6-(1-methylcyclopropyl)-1-(4-methylpiperazin-1-yl)pyrido[3,4-d]pyridazin-7(6H)-one] | 4.4 |
| C[C@@H](Nc1nnc(NC23CC(C2)C3)c2cc(=O)n(C3(C)CC3)cc12)c1cccc(C(F)F)c1F [Example 125, (R)-1-(bicyclo[1.1.1]pentan-1-ylamino)-4-((1-(3-(difluoromethyl)-2-fluorophenyl)ethyl)amino)-6-(1-methylcyclopropyl) pyrido[3,4-d]pyridazin-7(6H)-one] | 14.1 |
| Cc1cc(N)cc([C@@H](C)Nc2nnc(N3CCN(C)CC3)c3cc(=O)n(C4CC4)cc23)c1F [Example 141, (R)-4-((1-(5-amino-2-fluoro-3-methylphenyl)ethyl)amino)-6-cyclopropyl-1-(4-methylpiperazin-1-yl)pyrido[3,4-d]pyridazin-7(6H)-one] | 7.8 |
| Cc1cc(N)cc([C@@H](C)Nc2nnc(N3CCN(C4CC4)CC3)c3cc(=O)n(C4CC4)cc23)c1F [Example 143, (R)-4-((1-(5-amino-2-fluoro-3-methylphenyl)ethyl)amino)-6-cyclopropyl-1-(4-cyclopropylpiperazin-1-yl)pyrido[3,4-d]pyridazin-7(6H)-one] | 11.5 |
| CCN1CCN(c2nnc(N[C@H](C)c3cc(N)cc(C)c3F)c3cn(C4(C)CC4)c(=O)cc23)CC1 [Example 160, (R)-4-((1-(5-amino-2-fluoro-3-methylphenyl)ethyl)amino)-1-(4-ethylpiperazin-1-yl)-6-(1-methylcyclopropyl) pyrido[3,4-d]pyridazin-7(6H)-one formate] | 5.7 |
| C[C@@H](Nc1nnc(N2CCC3(CC3)C2)c2cc(=O)n(C3(C)CC3)cc12)c1cccc(C(F)F)c1F [Example 187, (R)-4-((1-(3-(difluoromethyl)-2-fluorophenyl)ethyl)amino)-6-(1-methylcyclopropyl)-1-(5-azaspiro[2.4]heptan-5-yl)pyrido[3,4-d]pyridazin-7(6H)-one] | 4.8 |
| C[C@@H](Nc1nnc(N2CCC[C@H](CO)C2)c2cc(=O)n(C3(C)CC3)cc12)c1cccc2c1CCC2(F)F [Example 207, 4-(((R)-1-(1,1-difluoro-2,3-dihydro-1H-inden-4-yl)ethyl)amino)-1-((S)-3-(hydroxymethyl)piperidin-1-yl)-6-(1-methylcyclopropyl) pyrido[3,4-d]pyridazin-7(6H)-one] | 7.3 |
| Cc1c(C(F)F)cccc1[C@@H](C)Nc1nnc(N2CCN(C)CC2)c2cc(=O)n(C3CC3)cc12 [Example 210, (R)-6-cyclopropyl-4-((1-(3-(difluoromethyl)-2-methylphenyl)ethyl)amino)-1-(4-methylpiperazin-1-yl)pyrido[3,4-d]pyridazin-7(6H)-one] | 2.7 |
| C[C@@H](Nc1nnc(NN2CCN(C)CC2)c2cc(=O)n(C3(C)CC3)cc12)c1cccc(C(F)(F)F)c1 [Example 159, (R)-6-(1-methylcyclopropyl)-1-((4-methylpiperazin-1-yl)amino)-4-((1-(3-(trifluoromethyl)phenyl)ethyl)amino)pyr ido[3,4-d]pyridazin-7(6H)-one formate] | 6.4 |
| Cc1c([C@@H](C)Nc2nnc(N3CCC(F)(F)CC3)c3cc(=O)n(C4CC4)cc23)cccc1C(F)(F)F [Example 58, (R)-6-cyclopropyl-1-(4,4-difluoropiperidin-1-yl)-4-((1-(2-methyl-3-(trifluoromethyl)phenyl)ethyl)amino)pyr ido[3,4-d]pyridazin-7(6H)-one] | 100 |
| Cc1c(C#N)cccc1[C@@H](C)Nc1nnc(N2CCN(C)CC2)c2cc(=O)n(C3(C)CC3)cc12 [Example 82, (R)-2-methyl-3-(1-((6-(1-methylcyclopropyl)-1-(4-methylpiperazin-1-yl)-7-oxo-6,7-dihydropyrido[3,4-d]pyridazin-4-yl)amino)ethyl)benzonitrile] | 9 |
| C[C@@H](Nc1nnc(N(C)C2CC2)c2cc(=O)n(C3(C)CC3)cc12)c1cccc(C(F)F)c1F [Example 225, (R)-1-(cyclopropyl(methyl)amino)-4-((1-(3-(difluoromethyl)-2-fluorophenyl)ethyl)amino)-6-(1-methylcyclopropyl) pyrido[3,4-d]pyridazin-7(6H)-one] | 7.6 |
| Cc1c([C@@H](C)Nc2nnc(N3CCC[C@H]3C)c3cc(=O)n(C4(C)CC4)cc23)cccc1C(F)(F)F [Example 63, 4-(((R)-1-(2-methyl-3-(trifluoromethyl)phenyl)ethyl)amino)-6-(1-methylcyclopropyl)-1-((R)-2-methylpyrrolidin-1-yl)pyrido[3,4-d]pyridazin-7(6H)-one] | 7.8 |
| CCN(CC)c1nnc(N[C@H](C)c2cccc(C(F)(F)F)c2C)c2cn(C3(C)CC3)c(=O)cc12 [Example 60, (R)-1-(diethylamino)-4-((1-(2-methyl-3-(trifluoromethyl)phenyl)ethyl)amino)-6-(1-methylcyclopropyl) pyrido[3,4-d]pyridazin-7(6H)-one] | 20.9 |
| Cc1cc(N)cc([C@@H](C)Nc2nnc(N3CCN(C(C)C)CC3)c3cc(=O)n(C4CC4)cc23)c1F [Example 147, (R)-4-((1-(5-amino-2-fluoro-3-methylphenyl)ethyl)amino)-6-cyclopropyl-1-(4-isopropylpiperazin-1-yl)pyrido[3,4-d]pyridazin-7(6H)-one formate] | 6.3 |
| CCN(C)c1nnc(N[C@H](C)c2cccc(C(F)F)c2F)c2cn(C3(C)CC3)c(=O)cc12 [Example 122, (R)-4-((1-(3-(difluoromethyl)-2-fluorophenyl)ethyl)amino)-1-(ethyl(methyl)amino)-6-(1-methylcyclopropyl) pyrido[3,4-d]pyridazin-7(6H)-one] | 10.6 |
